These results are taken from ChEMBL document CHEMBL1201862, “PubChem BioAssay data set” (2004).

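Growth conditions: 96-well plates. Treatment: test compound, 48 hours, 5 concentrations. Analysis: linear interpolation between bracketing concentrations; unreached endpoints set to highest concentration. GI50: concentration for 50% inhibition of growth.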 Calls of active or inactive are those of the source. Cut-off read from the data, not from the text of the source: active = GI50 up to about 1.1 µM and inactive = higher. Some results are limits rather than exact numbers.

What all share (assay): growth of human tumour cells (NCI), 48 h
In experiment [1] the test system is SK-MEL-2.
In experiment [2] the test system is RPMI-8226.
The test system of experiment [3] is SF-539.
For experiment [4], the system named is DU-145.
Experiment [5] deals with SNB-75.
Experiment [6] deals with K562.
Experiment [7] deals with LOX IMVI.
For experiment [8], the system named is SK-OV-3.
The subject of experiment [9] is Hs-578T.
For experiment [10], the system named is HCC 2998.
Experiment [11] concerns UACC-62.
Experiment [12] has as its system RXF 393.
Experiment [13] deals with CAKI-1.
The subject of experiment [14] is NCI/ADR-RES.
Experiment [15] relates to UO-31.
Experiment [16] deals with 786-0.
Experiment [17] relates to SNB-19.
Experiment [18] relates to KM12.
The subject of experiment [19] is BT-549.

Turning to `COC(=O)C1Cc2c([nH]c3ccccc23)-c2[nH]c3ccccc3c2CC(NC(C)=O)C(=O)NCC(=O)N1` (stereo not given), the GI50 in experiment [1], in [2], in [3], in experiment [4], in experiment [5] and in experiment [6] was > 100 µM (inactive) each time. The GI50 in experiment [7], in experiment [8], in [9], in experiment [10], in [11] and in [12] was > 100 µM (inactive) in each case. In addition, the GI50 in experiment [13], in experiment [14], in experiment [15], in [16], in experiment [17] and in experiment [18] was > 100 µM (inactive) throughout.

For the molecule `COc1ccc(/C=N/N=C(\N)NO)c(OC)c1C`, the GI50 in [1] is 22.3 µM (inactive); in [2], 23.7 µM (inactive); in experiment [3] it was 19.2 µM (inactive); in experiment [6], 10.1 µM (inactive); in [7], 4.81 µM (inactive); in [8] it was 34.4 µM (inactive). Moreover, the GI50 in experiment [10] was 7.08 µM (inactive); in experiment [11], 16.3 µM (inactive); in experiment [12] it was 12.2 µM (inactive); in [13] it was 8.49 µM (inactive); in experiment [15], 10.2 µM (inactive); in [16], 16.1 µM (inactive). The GI50 in experiment [17] was 65.2 µM (inactive); in experiment [18] it was 29.2 µM (inactive).

Turning to `Cc1n[nH]c(=O)n1/N=C/c1ccc([N+](=O)[O-])o1`, the GI50 in experiment [1] was 14.2 µM (inactive); in experiment [2] it was 15.7 µM (inactive); in experiment [3] it was 19.1 µM (inactive); in experiment [4], 10.4 µM (inactive); in experiment [5], 32.4 µM (inactive); in [6] it was 8.02 µM (inactive). In addition, the GI50 in experiment [7] is 8.85 µM (inactive); in [8], 28.2 µM (inactive); in [19] it was 21.8 µM (inactive); in experiment [10], 20.6 µM (inactive); in experiment [11], 13.1 µM (inactive); in [12], 0.881 µM (active). Also, the GI50 in [13] was 7.8 µM (inactive); in experiment [14] it was 17.4 µM (inactive); in experiment [15] it was 14.5 µM (inactive); in [16] it was 15.1 µM (inactive); in [17], 31 µM (inactive); in [18], 13.7 µM (inactive).

For the molecule `O=C1NC(=S)NC1C(Cc1ccccc1)c1ccco1` (stereo not given), the GI50 in experiment [2] was 84.9 µM (inactive); in [3], > 100 µM (inactive); in [4], > 100 µM (inactive); in experiment [5] it was > 100 µM (inactive); in [6] it was 83.4 µM (inactive); in experiment [7], > 100 µM (inactive). In addition, the GI50 in experiment [8], in experiment [9], in [10], in experiment [12], in experiment [13] and in [14] was > 100 µM (inactive) throughout. Besides, the GI50 in experiment [15], in experiment [16], in [17] and in experiment [18] was > 100 µM (inactive) throughout.

For the molecule `Cc1[nH]n(-c2nc(O)c(C)c(=O)[nH]2)c(=O)c1CCO`, the GI50 in experiment [1] was > 100 µM (inactive); in [2], > 100 µM (inactive); in experiment [3], > 100 µM (inactive); in experiment [4], > 100 µM (inactive); in experiment [5] it was 45.6 µM (inactive); in experiment [6], > 100 µM (inactive). The GI50 in experiment [8] was > 100 µM (inactive); in [9] it was > 100 µM (inactive); in experiment [19], > 100 µM (inactive); in experiment [11], > 100 µM (inactive); in experiment [12], 22.6 µM (inactive); in experiment [13] it was > 100 µM (inactive). In addition, the GI50 in experiment [15], in experiment [16], in [17] and in experiment [18] was > 100 µM (inactive) each time.

As to `CCCCCCSCC/C(C)=N\OC`, the GI50 in experiment [1], in experiment [2], in experiment [3], in experiment [4], in experiment [5] and in experiment [6] was > 100 µM (inactive) throughout. Moreover, the GI50 in [7], in experiment [8], in experiment [19], in experiment [10], in experiment [11] and in experiment [12] was > 100 µM (inactive) in each case. For the same molecule, the GI50 in [13], in experiment [14], in [15], in experiment [16], in experiment [17] and in [18] was > 100 µM (inactive) throughout.

As for `S=C(N/N=C/c1ccccc1)NC1CC(c2ccccc2)Oc2ccccc21` (stereo not given), the GI50 in experiment [1] is > 100 µM (inactive); in experiment [3], 38.3 µM (inactive); in experiment [5], 7.16 µM (inactive); in experiment [6], 15.2 µM (inactive); in [7], > 100 µM (inactive); in experiment [8] it was 11.7 µM (inactive). The GI50 is > 100 µM (inactive) in [10]; 48.8 µM (inactive) in experiment [11]; 28.4 µM (inactive) in [13]; > 100 µM (inactive) in experiment [15]; 67 µM (inactive) in experiment [16]; 36.5 µM (inactive) in [17]. Further, the GI50 in experiment [18] is > 100 µM (inactive).

Consider `CSC1=N/C(=C\c2ccccc2)C(=O)N1CN1CCOCC1`, for which the GI50 is > 100 µM (inactive) in experiment [1]; 30.1 µM (inactive) in experiment [2]; 96.2 µM (inactive) in experiment [4]; 69.2 µM (inactive) in [5]; 41.9 µM (inactive) in experiment [6]; 31.6 µM (inactive) in experiment [7]. In addition, the GI50 was > 100 µM (inactive) in [8]; 47.5 µM (inactive) in experiment [9]; 34 µM (inactive) in experiment [11]; 17.1 µM (inactive) in experiment [14]; 38.3 µM (inactive) in [15]; 41.1 µM (inactive) in experiment [16]. In addition, the GI50 in experiment [17] is 52.5 µM (inactive); in [18], 93.5 µM (inactive).

With `CCCCc1ccc(N2C(=O)c3cc([N+](=O)[O-])cnc3S2(=O)=O)cc1`, the GI50 is 23.3 µM (inactive) in [1]; > 100 µM (inactive) in [2]; > 100 µM (inactive) in experiment [3]; > 100 µM (inactive) in experiment [5]; > 100 µM (inactive) in experiment [6]; 61.7 µM (inactive) in [7]. The GI50 in experiment [8] was > 100 µM (inactive); in experiment [9] it was > 100 µM (inactive); in [19], 87.7 µM (inactive); in experiment [10], > 100 µM (inactive); in experiment [11] it was > 100 µM (inactive); in experiment [13], > 100 µM (inactive). The GI50 in [14] is 25.2 µM (inactive); in experiment [15], > 100 µM (inactive); in experiment [16], > 100 µM (inactive); in experiment [17], 52.1 µM (inactive); in [18] it was > 100 µM (inactive).

As to `COC(=O)[C@]12CSC[C@H]1C[C@H](c1cccc3ccccc13)N2`, the GI50 in experiment [1] was > 100 µM (inactive); in [2], 61.8 µM (inactive); in [3], > 100 µM (inactive); in [4], 27.8 µM (inactive); in [5], > 100 µM (inactive); in experiment [6], 35.1 µM (inactive). Further, the GI50 in [7] was 94.6 µM (inactive); in experiment [8] it was > 100 µM (inactive); in [19], > 100 µM (inactive); in experiment [10], > 100 µM (inactive); in [11], > 100 µM (inactive); in experiment [13] it was > 100 µM (inactive). Besides, the GI50 in experiment [14], in experiment [15], in experiment [16], in experiment [17] and in experiment [18] was > 100 µM (inactive) each time.

With `Cc1ccccc1C1SCc2nc3ccccc3n21` (stereo not given), the GI50 in [1] was > 100 µM (inactive); in experiment [2], 5.85 µM (inactive); in experiment [3] it was 70.1 µM (inactive); in experiment [5] it was > 100 µM (inactive); in experiment [6], 3.77 µM (inactive); in [8], > 100 µM (inactive). For the same molecule, the GI50 is > 100 µM (inactive) in experiment [10]; 7.28 µM (inactive) in [11]; > 100 µM (inactive) in experiment [12]; > 100 µM (inactive) in [13]; > 100 µM (inactive) in experiment [15]; > 100 µM (inactive) in [16]. Also, the GI50 in [17] and in experiment [18] was > 100 µM (inactive) each time.

Take `O=S(=O)(c1cc(Cl)ccc1Cl)N1CCN(c2cccc(Cl)c2)CC1`: the GI50 in experiment [2] is > 100 µM (inactive); in [3], > 100 µM (inactive); in experiment [4], > 100 µM (inactive); in experiment [5] it was > 100 µM (inactive); in [6] it was 67 µM (inactive); in experiment [7], > 100 µM (inactive). Also, the GI50 in experiment [9], in experiment [19], in [10], in [12], in [13] and in [15] was > 100 µM (inactive) each time. Also, the GI50 in experiment [16], in experiment [17] and in experiment [18] was > 100 µM (inactive) in each case.
